# Legend:
# BRK-BaF3 cells = experiment: Cell antiproliferative activity assay (CCK-8), BRK-BaF3; assay type: cell-based; conditions: 72 h, CCK-8, 3 days incubation
# Procedure: (§1) The activity of compounds against BRK kinase can be evaluated by their inhibition of the growth of the BRK kinase-stably transfected BaF3 cell line (BRK-BaF3) and wild-type BaF3 cells (WT-BaF3). […] The larger the ratio of the half-maximal growth inhibitory concentration (IC50) of a compound between WT-BaF3 and BRK-BaF3 cells, the better the selectivity of the compound.
# (§2) BRK-BaF3, WT-BaF3, WEHI cell line, and breast cancer cell line T47D were cultured using RPMI 1640 Basal medium or DMEM (Dulbecco's Modified Eagle Medium) (Shanghai Peiyuan Biotechnology, L220KJ), supplemented with 10% FBS (Gibco, REF 10099-141C) and 1% P/S (Shanghai Peiyuan Biotechnology, S110JV), in an incubator (Thermo 3020) at 37°C with 5% CO2. Cell viability was above 95%. Cells were passaged at a 3:1 ratio every 3-4 days. For WT-BaF3 cells, WEHI cells were first cultured, and their culture supernatant was filtered through a 0.22 µm filter. This supernatant was added at 10% to the regular culture medium to supplement IL-3 required for WT-BaF3 cell proliferation, which served as the culture medium for WT-BaF3. For testing, cells were first collected and counted, then prepared into a cell suspension at 100,000 cells/mL and plated at 100 µL per well. Drug concentrations started from 10 µM and were serially diluted 3:1. After incubation for 3 days, 20 µL of CCK-8 detection reagent (Targetmol C005) was added to each well. After incubation for 2-4 hours, OD450 was measured using a microplate reader (Varioskan LUX, Thermo Scientific). After subtracting the blank background, the curve was fitted and the IC50 was calculated using XLfit software.
# WT-BaF3 cells = experiment: Cell antiproliferative activity assay (CCK-8), WT-BaF3 (broad-spectrum cytotoxicity); assay type: cell-based; conditions: 72 h; WT-BaF3 cells (IL-3 supplemented), CCK-8, 3 days incubation
# Procedure: as §1, §2
IC50 (BRK-BaF3 cells),SMILES,IC50 (WT-BaF3 cells)
20 to 100 nM,COc1nccnc1-c1cc(C(C)C)c2nc(Nc3cn(CCO)nc3C)ncc2c1 [I-82],500 to 2500 nM
≤ 20 nM,Cc1nn(CCO)cc1Nc1ncc2cc(-c3nccnc3N)cc(C(C)C)c2n1 [I-84],> 2500 nM
≤ 20 nM,Cc1cncc(-c2cc(C(C)C)c3nc(Nc4cn(CCO)nc4C)ncc3c2)n1 [I-90],500 to 2500 nM
20 to 100 nM,Cc1nn(CCO)cc1Nc1ncc2cc(-c3cncc(N)n3)cc(C(C)C)c2n1 [I-93],> 2500 nM
20 to 100 nM,Cc1cnc(C)c(-c2cc(C(C)C)c3nc(Nc4cn(CCO)nc4C)ncc3c2)n1 [I-96],> 2500 nM
≤ 20 nM,Cc1nccnc1-c1cc(C(C)C)c2nc(Nc3cnn(CCO)c3)ncc2c1 [I-97],500 to 2500 nM
≤ 20 nM,Cc1nccnc1-c1cc(C(C)C)c2nc(Nc3cn(CCO)nc3C(F)F)ncc2c1 [I-99],500 to 2500 nM
≤ 20 nM,Cc1nn(CCCO)cc1Nc1ncc2cc(-c3nccnc3C)cc(C(C)C)c2n1 [I-100],500 to 2500 nM
≤ 20 nM,Cc1nn(CC(C)(C)O)cc1Nc1ncc2cc(-c3nccnc3C)cc(C(C)C)c2n1 [I-101],> 2500 nM
≤ 20 nM,Cc1nccnc1-c1cc(C(C)C)c2nc(Nc3cnn(CCO)c3C)ncc2c1 [I-102],> 2500 nM
≤ 20 nM,Cc1nn(CCO)cc1Nc1ncc2cc(-c3nccnc3C)cc(C3CC3)c2n1 [I-103],500 to 2500 nM
≤ 20 nM,Cc1nn(CCO)cc1Nc1ncc2cc(-c3nccnc3Cl)cc(C3CC3)c2n1 [I-104],> 2500 nM
≤ 20 nM,Cc1nn(CCO)cc1Nc1ncc2cc(-c3nccnc3N)cc(C3CC3)c2n1 [I-105],500 to 2500 nM
≤ 20 nM,Cc1nccnc1-c1cc(C2CC2)c2nc(Nc3cnn(CCO)c3)ncc2c1 [I-107],500 to 2500 nM
≤ 20 nM,Cc1nccnc1-c1cc(C(F)(F)F)c2nc(Nc3cnn(CCO)c3)ncc2c1 [I-110],> 2500 nM
20 to 100 nM,Cc1nn(CCO)cc1Nc1ncc2cc(-c3nnccc3C#N)cc(C(C)C)c2n1 [I-117],> 2500 nM
20 to 100 nM,Cc1nn(CCO)cc1Nc1ncc2cc(-c3nnccc3C#N)cc(C3CC3)c2n1 [I-118],> 2500 nM
≤ 20 nM,Cc1ccnnc1-c1cc(C(F)(F)F)c2nc(Nc3cn(CCO)nc3C)ncc2c1 [I-122],500 to 2500 nM
20 to 100 nM,Cc1nn(CCO)cc1Nc1ncc2cc(-c3cncnc3)cc(C(C)C)c2n1 [I-123],500 to 2500 nM
20 to 100 nM,Cc1nn(CCO)cc1Nc1ncc2cc(-c3cncnc3N)cc(C(C)C)c2n1 [I-124],> 2500 nM
≤ 20 nM,Cc1nn(CCO)cc1Nc1ncc2cc(-c3c(C)ncnc3Cl)cc(C(C)C)c2n1 [I-127],> 2500 nM
≤ 20 nM,Cc1nn(CCO)cc1Nc1ncc2cc(-c3c(C)ncnc3C)cc(C(C)C)c2n1 [I-128],> 2500 nM

IC50 (BRK-BaF3 cells),SMILES,IC50 (WT-BaF3 cells)
20 to 100 nM,Cc1nn(CCO)cc1Nc1ncc2cc(-c3c(C)ncnc3N)cc(C(C)C)c2n1 [I-129],> 2500 nM
20 to 100 nM,Cc1nn(CCO)cc1Nc1ncc2cc(-c3c(C)ncnc3O)cc(C(C)C)c2n1 [I-130],> 2500 nM
≤ 20 nM,COc1ncnc(C)c1-c1cc(C(C)C)c2nc(Nc3cn(CCO)nc3C)ncc2c1 [I-131],> 2500 nM
≤ 20 nM,Cc1nn(CCO)cc1Nc1ncc2cc(-c3ncnc(C)c3Br)cc(C(C)C)c2n1 [I-139],500 to 2500 nM
20 to 100 nM,Cc1ncnc(C)c1-c1cc(C(C)C)c2nc(Nc3cn(CCO)nc3C(F)F)ncc2c1 [I-141],> 2500 nM
≤ 20 nM,Cc1nn(CCCO)cc1Nc1ncc2cc(-c3c(C)ncnc3C)cc(C(C)C)c2n1 [I-142],> 2500 nM
20 to 100 nM,Cc1ncnc(C)c1-c1cc(C(C)C)c2nc(Nc3cn(CCO)nc3Cl)ncc2c1 [I-143],> 2500 nM
≤ 20 nM,Cc1nn(CC(C)(C)O)cc1Nc1ncc2cc(-c3c(C)ncnc3C)cc(C(C)C)c2n1 [I-144],> 2500 nM
≤ 20 nM,Cc1cncnc1-c1cc(C2CC2)c2nc(Nc3cn(CCO)nc3C)ncc2c1 [I-148],> 2500 nM
20 to 100 nM,Cc1ncnc(C)c1-c1cc(C(F)(F)F)c2nc(Nc3cnn(CCO)c3)ncc2c1 [I-149],> 2500 nM
≤ 20 nM,Cc1nn(CCO)cc1Nc1ncc2cc(-c3c(C)ncnc3C)cc(C(F)(F)F)c2n1 [I-150],> 2500 nM
20 to 100 nM,Cc1nn(CCO)cc1Nc1ncc2cc(-c3cncnc3)cc(C(F)(F)F)c2n1 [I-151],> 2500 nM
≤ 20 nM,Cc1nn(CCO)cc1Nc1ncc2cc(-c3cncnc3C)cc(C(F)(F)F)c2n1 [I-152],> 2500 nM
≤ 20 nM,COc1ncncc1-c1cc(C(F)(F)F)c2nc(Nc3cn(CCO)nc3C)ncc2c1 [I-153],> 2500 nM
≤ 20 nM,Cc1nn(CCO)cc1Nc1ncc2cc(-c3c(O)cccc3F)cc(C(C)C)c2n1 [I-155],500 to 2500 nM
≤ 20 nM,Cc1ccc(C#N)cc1-c1cc(C(C)C)c2nc(Nc3cnn(CCO)c3C)ncc2c1 [I-170],> 2500 nM
20 to 100 nM,Cc1c[nH]c(=O)cc1-c1cc(C(C)C)c2nc(Nc3cnn(CCO)c3C)ncc2c1 [I-181],> 2500 nM
≤ 20 nM,Cc1nn(CCO)cc1Nc1ncc2cc(-c3cn(C)nc3C)cc(C(C)C)c2n1 [I-188],500 to 2500 nM
≤ 20 nM,Cc1cn(C)nc1-c1cc(C(C)C)c2nc(Nc3cn(CCO)nc3C)ncc2c1 [I-190],500 to 2500 nM
≤ 20 nM,Cc1cnn(C)c1-c1cc(C(C)C)c2nc(Nc3cn(CCO)nc3C)ncc2c1 [I-191],500 to 2500 nM
≤ 20 nM,Cc1nc(P(C)(C)=O)ccc1Nc1ncc2cc(-c3nccnc3C)cc(C(C)C)c2n1 [II-1],> 2500 nM
≤ 20 nM,COc1nc(P(C)(C)=O)ccc1Nc1ncc2cc(-c3nccnc3C)cc(C(C)C)c2n1 [II-2],> 2500 nM

IC50 (BRK-BaF3 cells),SMILES,IC50 (WT-BaF3 cells)
≤ 20 nM,Cc1nccnc1-c1cc(C(C)C)c2nc(Nc3ccc(P(C)(C)=O)nc3)ncc2c1 [II-3],> 2500 nM
20 to 100 nM,Cc1cc(P(C)(C)=O)ncc1Nc1ncc2cc(-c3nccnc3C)cc(C(C)C)c2n1 [II-4],> 2500 nM
≤ 20 nM,COc1cc(P(C)(C)=O)ncc1Nc1ncc2cc(-c3nccnc3C)cc(C(C)C)c2n1 [II-5],> 2500 nM
≤ 20 nM,Cc1cc(Nc2ncc3cc(-c4nccnc4C)cc(C(C)C)c3n2)cnc1P(C)(C)=O [II-6],> 2500 nM
20 to 100 nM,COc1cc(Nc2ncc3cc(-c4nccnc4C)cc(C(C)C)c3n2)cnc1P(C)(C)=O [II-7],500 to 2500 nM
20 to 100 nM,Cc1nccnc1-c1cc(C(C)C)c2nc(Nc3ccc(P(C)(C)=O)cn3)ncc2c1 [II-8],> 2500 nM
20 to 100 nM,Cc1cc(Nc2ncc3cc(-c4nccnc4C)cc(C(C)C)c3n2)ncc1P(C)(C)=O [II-9],> 2500 nM
20 to 100 nM,Cc1nc(Nc2ncc3cc(-c4nccnc4C)cc(C(C)C)c3n2)ccc1P(C)(C)=O [II-10],> 2500 nM
20 to 100 nM,Cc1cc(P(C)(C)=O)ccc1Nc1ncc2cc(-c3nccnc3C)cc(C(C)C)c2n1 [II-13],> 2500 nM
≤ 20 nM,COc1cc(P(C)(C)=O)ccc1Nc1ncc2cc(-c3nccnc3C)cc(C(C)C)c2n1 [II-14],> 2500 nM
≤ 20 nM,CCc1cc(P(C)(C)=O)ccc1Nc1ncc2cc(-c3nccnc3C)cc(C(C)C)c2n1 [II-15],> 2500 nM
≤ 20 nM,Cc1nccnc1-c1cc(C(C)C)c2nc(Nc3ccc(P(C)(C)=O)c(Cl)c3F)ncc2c1 [II-17],500 to 2500 nM
≤ 20 nM,Cc1cc(Nc2ncc3cc(-c4nccnc4C)cc(C(C)C)c3n2)c(F)cc1P(C)(C)=O [II-21],500 to 2500 nM
≤ 20 nM,Cc1nccnc1-c1cc(C2CC2)c2nc(Nc3ccc(P(C)(C)=O)cc3)ncc2c1 [II-30],500 to 2500 nM
≤ 20 nM,Cc1nccnc1-c1cc(C2CC2)c2nc(Nc3ccc(P(C)(C)=O)cc3F)ncc2c1 [II-31],> 2500 nM
≤ 20 nM,COc1nc(P(C)(C)=O)ccc1Nc1ncc2cc(-c3nccnc3C)cc(C3CC3)c2n1 [II-32],500 to 2500 nM
≤ 20 nM,Cc1nccnc1-c1cc(C(F)(F)F)c2nc(Nc3ccc(P(C)(C)=O)cc3)ncc2c1 [II-34],> 2500 nM
20 to 100 nM,Cc1nccnc1-c1cc(C(F)(F)F)c2nc(Nc3ccc(P(C)(C)=O)cc3F)ncc2c1 [II-35],> 2500 nM
20 to 100 nM,Cc1ncnc(C)c1-c1cc(C(C)C)c2nc(Nc3ccc(P(C)(C)=O)nc3)ncc2c1 [II-42],> 2500 nM
20 to 100 nM,Cc1cc(P(C)(C)=O)ncc1Nc1ncc2cc(-c3c(C)ncnc3C)cc(C(C)C)c2n1 [II-43],> 2500 nM
20 to 100 nM,COc1cc(P(C)(C)=O)ncc1Nc1ncc2cc(-c3c(C)ncnc3C)cc(C(C)C)c2n1 [II-44],> 2500 nM

# Source: patent publication EP4803513A1, “SUBSTITUTED QUINAZOLINE COMPOUND, PREPARATION METHOD THEREFOR, PHARMACEUTICAL COMBINATION THEREOF, AND USE THEREOF” (Hongyun Biotech Co., Ltd., priority 2023, dated 2025)
